Assay results reported in the supplement of paper PMC10307832.

Experiments:
Experiment in all cases: relative viability (nuclei count vs DMSO), 5 days (fraction); higher = more cells survive
[1] = system: SW 1573
In short: (§1)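 The day after seeding in 1536-well plates, lung cancer cell lines were treated by pin tool with a single drug, or with a fixed anchor-drug dose together with five library-drug doses (not always all listed) in √10 steps. After 5 days, a combined fix-and-stain solution (final 0.05% Triton X-100, 1% formaldehyde, 1 ug/ml Hoechst) was added. Nuclei counted on 4× images gave relative viability as treated counts over vehicle counts, reported as the median of duplicate plates.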

[2] = system: ChaGo-K-1
In short: as §1

[3] = system: LOU-NH91
In short: as §1

[4] = system: NCI-H1666
In short: as §1

[5] = system: SK-LU-1
In short: as §1

[6] = system: NCI-H3122
In short: as §1

[7] = system: RERF-LC-KJ
In short: as §1

[8] = system: NCI-H1563
In short: as §1

[9] = system: NCI-H2126
In short: as §1

[10] = system: NCI-H23
In short: as §1

[11] = system: SW 900
In short: as §1

[12] = system: EMC-BAC-2
In short: as §1

[13] = system: NCI-H2405
In short: as §1

[14] = system: NCI-H322M
In short: as §1

[15] = system: HCC-827
In short: as §1

[16] = system: NCI-H1975
In short: as §1

[17] = system: LXF-289
In short: as §1

[18] = system: EPLC-272H
In short: as §1

[19] = system: LK-2
In short: as §1

[20] = system: NCI-H2085
In short: as §1

[21] = system: LU99A
In short: as §1

[22] = system: LCLC-103H
In short: as §1

Molecule `CC1(C)CCC(c2ccc(Cl)cc2)=C(CN2CCN(c3ccc(C(=O)NS(=O)(=O)c4ccc(N[C@H](CCN5CCOCC5)CSc5ccccc5)c(S(=O)(=O)C(F)(F)F)c4)cc3)CC2)C1` [Navitoclax] + CCNC(=O)c1noc(-c2cc(C(C)C)c(O)cc2O)c1-c1ccc(CN2CCOCC2)cc1 [Luminespib] (partner 0.01 µM) has a relative viability ([1]; first compound 0.005 µM) of 0.145, a relative viability ([1]; first compound 0.01581 µM) of 0.213 and a relative viability ([1]; first compound 0.05 µM) of 0.429. It also gave a relative viability ([1]; first compound 0.1581 µM) of 0.212, a relative viability ([1]; first compound 0.5 µM) of 0.206 and a relative viability ([2]; first compound 0.005 µM) of 0.708. For the same molecule, the relative viability ([2]; first compound 0.01581 µM) was 0.593, the relative viability ([2]; first compound 0.05 µM) was 0.306 and the relative viability ([2]; first compound 0.1581 µM) was 0.578. It also gave a relative viability ([2]; first compound 0.5 µM) of 0.636, a relative viability ([3]; first compound 0.005 µM) of 0.349 and a relative viability ([3]; first compound 0.01581 µM) of 0.362. The relative viability ([3]; first compound 0.05 µM) was 0.327, the relative viability ([3]; first compound 0.1581 µM) was 0.321 and the relative viability ([3]; first compound 0.5 µM) was 0.275. It also gave a relative viability ([4]; first compound 0.005 µM) of 0.881, a relative viability ([4]; first compound 0.01581 µM) of 0.969 and a relative viability ([4]; first compound 0.05 µM) of 0.989. It also gave a relative viability ([4]; first compound 0.1581 µM) of 1.05, a relative viability ([4]; first compound 0.5 µM) of 1.05 and a relative viability ([5]; first compound 0.005 µM) of 0.205. It also gave a relative viability ([5]; first compound 0.01581 µM) of 0.179, a relative viability ([5]; first compound 0.05 µM) of 0.199 and a relative viability ([5]; first compound 0.1581 µM) of 0.199. It also gave a relative viability ([5]; first compound 0.5 µM) of 0.201, a relative viability ([6]; first compound 0.005 µM) of 0.09 and a relative viability ([6]; first compound 0.01581 µM) of 0.0825. For the same molecule, the relative viability ([6]; first compound 0.05 µM) was 0.11, the relative viability ([6]; first compound 0.1581 µM) was 0.083 and the relative viability ([6]; first compound 0.5 µM) was 0.0991. It also gave a relative viability ([7]; first compound 0.005 µM) of 1.32, a relative viability ([7]; first compound 0.01581 µM) of 1.23 and a relative viability ([7]; first compound 0.05 µM) of 1.17. It also gave a relative viability ([7]; first compound 0.1581 µM) of 1.18, a relative viability ([7]; first compound 0.5 µM) of 1.04 and a relative viability ([8]; first compound 0.005 µM) of 0.53. The relative viability ([8]; first compound 0.01581 µM) was 0.507, the relative viability ([8]; first compound 0.05 µM) was 0.485 and the relative viability ([8]; first compound 0.1581 µM) was 0.557. For the same molecule, the relative viability ([8]; first compound 0.5 µM) was 0.475, the relative viability ([9]; first compound 0.005 µM) was 0.906 and the relative viability ([9]; first compound 0.01581 µM) was 0.952. It also gave a relative viability ([9]; first compound 0.05 µM) of 0.923, a relative viability ([9]; first compound 0.1581 µM) of 0.779 and a relative viability ([9]; first compound 0.5 µM) of 0.844. The relative viability ([10]; first compound 0.005 µM) was 0.223, the relative viability ([10]; first compound 0.01581 µM) was 0.218 and the relative viability ([10]; first compound 0.05 µM) was 0.224. For the same molecule, the relative viability ([10]; first compound 0.1581 µM) was 0.213, the relative viability ([10]; first compound 0.5 µM) was 0.209 and the relative viability ([11]; first compound 0.005 µM) was 0.146. The relative viability ([11]; first compound 0.01581 µM) was 0.163, the relative viability ([11]; first compound 0.05 µM) was 0.177 and the relative viability ([11]; first compound 0.1581 µM) was 0.199. It also gave a relative viability ([11]; first compound 0.5 µM) of 0.132, a relative viability ([12]; first compound 0.005 µM) of 1.09 and a relative viability ([12]; first compound 0.01581 µM) of 1.24. For the same molecule, the relative viability ([12]; first compound 0.05 µM) was 1.08, the relative viability ([12]; first compound 0.1581 µM) was 1.13 and the relative viability ([12]; first compound 0.5 µM) was 1.12. It also gave a relative viability ([13]; first compound 0.005 µM) of 0.89, a relative viability ([13]; first compound 0.01581 µM) of 0.727 and a relative viability ([13]; first compound 0.05 µM) of 0.755. It also gave a relative viability ([13]; first compound 0.1581 µM) of 0.765, a relative viability ([13]; first compound 0.5 µM) of 0.702 and a relative viability ([14]; first compound 0.005 µM) of 0.81. It also gave a relative viability ([14]; first compound 0.01581 µM) of 1.12, a relative viability ([14]; first compound 0.05 µM) of 1.07 and a relative viability ([14]; first compound 0.1581 µM) of 0.908. For the same molecule, the relative viability ([14]; first compound 0.5 µM) was 0.908, the relative viability ([15]; first compound 0.005 µM) was 0.681 and the relative viability ([15]; first compound 0.01581 µM) was 0.699. For the same molecule, the relative viability ([15]; first compound 0.05 µM) was 0.49, the relative viability ([15]; first compound 0.1581 µM) was 0.58 and the relative viability ([15]; first compound 0.5 µM) was 0.69. It also gave a relative viability ([16]; first compound 0.005 µM) of 0.24, a relative viability ([16]; first compound 0.01581 µM) of 0.309 and a relative viability ([16]; first compound 0.05 µM) of 0.191. The relative viability ([16]; first compound 0.1581 µM) was 0.118, the relative viability ([16]; first compound 0.5 µM) was 0.132 and the relative viability ([17]; first compound 0.005 µM) was 0.631. For the same molecule, the relative viability ([17]; first compound 0.01581 µM) was 0.754, the relative viability ([17]; first compound 0.05 µM) was 0.725 and the relative viability ([17]; first compound 0.1581 µM) was 0.584. It also gave a relative viability ([17]; first compound 0.5 µM) of 0.636, a relative viability ([18]; first compound 0.005 µM) of 0.391 and a relative viability ([18]; first compound 0.05 µM) of 1. For the same molecule, the relative viability ([18]; first compound 0.1581 µM) was 0.647, the relative viability ([18]; first compound 0.5 µM) was 0.133 and the relative viability ([19]; first compound 0.005 µM) was 0.204. The relative viability ([19]; first compound 0.01581 µM) was 0.191, the relative viability ([19]; first compound 0.05 µM) was 0.202 and the relative viability ([19]; first compound 0.1581 µM) was 0.191. The relative viability ([19]; first compound 0.5 µM) was 0.195, the relative viability ([20]; first compound 0.005 µM) was 0.488 and the relative viability ([20]; first compound 0.01581 µM) was 0.538. It also gave a relative viability ([20]; first compound 0.05 µM) of 0.484, a relative viability ([20]; first compound 0.1581 µM) of 0.46 and a relative viability ([20]; first compound 0.5 µM) of 0.383. For the same molecule, the relative viability ([21]; first compound 0.005 µM) was 0.221, the relative viability ([21]; first compound 0.01581 µM) was 0.217 and the relative viability ([21]; first compound 0.05 µM) was 0.154. For the same molecule, the relative viability ([21]; first compound 0.1581 µM) was 0.168, the relative viability ([21]; first compound 0.5 µM) was 0.274 and the relative viability ([22]; first compound 0.005 µM) was 1.04. It also gave a relative viability ([22]; first compound 0.01581 µM) of 1.03, a relative viability ([22]; first compound 0.05 µM) of 1.08 and a relative viability ([22]; first compound 0.1581 µM) of 1.02. For the same molecule, the relative viability ([22]; first compound 0.5 µM) was 0.884.
